Data as given in US20060231107A1, “Antibody-targeted photodynamic therapy” (priority 2003, published 2006).

Key:
[1] = test system: MS-1 vascular endothelial cells; experiment: Binding kinetics: fluorescence intensity of labeled MS-1 cells in confocal micrographs; format: cell-based, murine; conditions: within the first 10 minutes of labeling (FIG. 7)
Protocol: FIG. 7 is a graph of fluorescence intensity of conjugate-labeled and VISUDYNE-labeled MS-1 vascular endothelial cells as a function of incubation time. The fluorescence intensity of confocal micrographs was determined with the “histogram” analysis tool of the ImagePro image processing software program (Media Cybernetics; Silver Springs, Md.). Intensity is expressed as the accumulated pixel counts in the image.
In order to provide a more quantitative comparison of the binding kinetics of the conjugate and the native VISUDYNE, the fluorescence intensity of the MS-1 cells labeled for varying durations was measured in a series of confocal micrographs using the “histogram” tool of ImagePro image processing program (Media Cybernetics; Silver Springs, Md.). […] Accordingly, if the laser activation were to be applied within 10 minutes of application of the conjugate, essentially maximum photodynamic effect would be realized. Targets not expressing the VEGF factor would not be as strongly labeled. This improved selectivity of the conjugate for VEGF-expressing targets is a distinct advantage over the native VISUDYNE.

[2] = test system: VEGF-expressing, murine endothelial cells (MS-1 VEGF, ATCC); experiment: Photodynamic cell viability by trypan blue exclusion; format: cell-based; conditions: for cell viability (trypan blue exclusion) compared with Dulbecco's PBS controls: laser-exposed (647 nm, 56.5 J/cm), verteporfin 40 μg/ml, P<0.0001
Protocol: FIG. 3 is a graph showing the mean percent cell viability by trypan blue exclusion over eight experimental runs in 24-well culture plates for VEGF-expressing endothelial cells in Dulbecco's phosphate buffered saline (“DPBS”), cells incubated with verteporfin ([sequence]) at 40 μg/ml (“Verteporfin”), and cells incubated with verteporfin ([sequence]) conjugated to anti-VEGF antibody (“Conjugate”). Error bars indicate 1 standard deviation from the mean. The cells received either no laser treatment or were exposed to krypton-ion CW laser (647 nm) at a total light dosage of 56.5 J/cm for either 1 hour (left) or 24 hours (right).
Experiments were conducted in a line of cultured, VEGF-expressing, murine erdothelial cells (MS-1 VEGF, ATCC). Cells were grown in 24-well culture plates under standard cell culture conditions in Dulbecco's minimal essential medium (DMEM) with 10% fetal calf serum. Cells were incubated for one hour with either phosphate buffered saline solution alone, verteporfin at 40 μg/ml, or verteporfin-anti-VEGF antibody conjugate (FIG. 2A). All cells were washed twice with phosphate buffered saline following incubation to remove unbound photosensitizer. The photosensitizer was excited by exposing selected wells to the krypton-ion CW laser (647 nm) at a total light dosage of 56.5 J/cm, which is the recommended ophthalmic light dosage (FIG. 2A). For each treatment condition, there were laser-exposed and non-exposed groups. Following laser exposure, cells were incubated for either 1 or 24 hours, and cell viability was assessed using trypan blue exclusion.

## verteporfin
[1]
  binding to the target cells (fluorescence intensity): approximately 50 % of maximum binding
[2]; 1 hour after laser
  cell viability (trypan blue exclusion) compared with Dulbecco's PBS controls: large losses of viability
[2]; 24 hours after laser
  cell viability (trypan blue exclusion) compared with Dulbecco's PBS controls: large losses of viability
[2]; no laser, possible toxicity or low-level activation by ambient light
  cell viability without laser exposure: reduced viability
